According to patent US20240189307A1, “METHODS OF STABILIZING THE NEURONAL PROTEOME AGAINST COLLAPSE AND PROTECTING VASCULAR CELLS” (ALBERT EINSTEIN COLLEGE OF MEDICINE, priority 2021, published 2024):

Tested on: NIH3T3 cells
Test: Macroautophagic flux (LC3-II flux with/without lysosomal protease inhibitors)
Assay type: cell-based, mouse
Details: 20 μM, 16 h
Description: FIG. 10. Characterization of the brain permeable chemical activator of CMA and effect in a mouse model of Frontotemporal dementia-related proteotoxicity. (A) Chemical structure of AR7 and CA77.1. (B) Quantification of the effect of adding increasing concentrations of AR7 and CA77.1 to NIH3T3 cells stably expressing the KFERQ-PS-Dendra reporter. CMA activity was quantified after 16 h treatment as the average of fluorescent puncta per cell. (n>800 cells per condition). (C) Autophagic flux in NIH3T3 cells incubated at 37° C. for 16 h with 20 µM AR7 or CA77.1 or without additions (none). Where indicated lysosomal protease inhibitors (PI) were added to the cells 6 h before lysis. Left: representative immunoblot. […] Right: quantification of LC3-II flux as the difference in LC3-II levels in cells treated with PI relative to untreated. […] (D) Quantification of the effect of adding increasing concentrations of AR7 and CA77.1 to NIH3T3 cells stably expressing the KFERQ-PS-Dendra reporter. CMA activity was quantified after 12 h or 24 h treatment as the average of fluorescent puncta per cell. […] Representative immunoblot of 4-5 mice per genotype and treatment (L) and densitometric quantification of AT8 as monomer [Kruskal-Wallis statistic=20.48, p<0.0001] […] (O, P) Quantification of the number of Iba1-positive microglial cells per mm^2 in the hippocampus [Kruskal-Wallis statistic=10.55, p=0.0051] […]

CC(=O)Nc1ccc(-c2cnc3cc(Cl)ccc3n2)cc1 [CA77.1]
effect on macroautophagy (LC3-II flux): without affecting macroautophagy
